Reference: US20200371122A1, “BIOMARKER FOR SENESCENT CELLS” (Buck Institute for Research on Aging, priority 2017, published 2020)

How the values were obtained:
[1] = system: IL-6 secretion; assay: IL-6 ELISA on non-senescent cells treated with prostaglandins; type: cell-based, human; conditions: 10 μM, 10 days
Method: Human fetal lung fibroblasts (IMR-90) were cultured in Dulbecco's modified eagle medium (DMEM) supplemented with 10% FBS and penicillin/streptomycin. LL 29 (AnHa) cells were obtained from the ATCC and growth to confluence using the ATCC protocol, but were subcultured as described for IMR-90 before initiation of all experiments. Quiescence was induced by replacing culture media with media containing 0.2% FBS. MCF-7 and MDA-MB-231 breast cancer cells were cultured in RPMI supplemented with 10% FBS and penicillin/streptomycin. All cells were cultured at 3% O2, and used between 25 and 40 population doublings. All cells were mycoplasma free.
3×10^4 cells in 12-well plates were treated as indicated in the text, and cultured in 0.5-1 ml serum-free DMEM for 24 hr. CM were collected and clarified at 2,000×g for 10 min. Supernatants were transferred to a tube; cells were trypsinized and counted. CM (2.5 μl) were analyzed by bead-based ELISAs (AlphaLISA, Perkin-Elmer) as instructed by the manufacturer and normalized to cell number.

[2] = system: C57BL6/J and p16-3MR mice injured with bleomycin; assay: Bleomycin-induced pulmonary fibrosis in mice; type: in vivo, mouse
Method: RNA was extracted from cells or tissues using commercially available kits (Isolate II—Bioline for cells; Direct-zol—Zymo for tissues) according to the manufacturer's instructions. cDNA synthesis was performed using a High Capacity cDNA Reverse Transcription Kit (Thermo Fisher) according to the manufacturer's instructions. Quantitative PCR was performed on a LightCycler 480 II (Roche) using primers and probes designed for the Universal Probe Library. Primers and probes used for human transcripts were ACTB: 5′-CCAACCGCGAGAAGATGA (SEQ ID NO:1), 5′-TCCATCACGATGCCAGTG (SEQ ID NO:2), Probe #64; TUBA: 5′-cttcgtctccgccatcag (SEQ ID NO:3), 5′-ttgccaatctggacacca (SEQ ID NO:4), Probe #58; ALOX5: 5′-[…] (SEQ ID NO:5), 5′-[…] (SEQ ID NO:6), Probe #64; ALOX5AP: 5′-ggtctgcggggctacttt (SEQ ID NO:7), 5′-[…] (SEQ ID NO:8), Probe #18; ALOX12: 5′-[…] (SEQ ID NO:9), 5′-agccaggtcgtcaggag (SEQ ID NO:10), Probe #32; ALOX15: 5′-[…] (SEQ ID NO:11), 5′-[…] (SEQ ID NO:12), Probe #76; ALOX15B: 5′-[…] (SEQ ID NO:13), 5′-actgggaggcgaagaagg (SEQ ID NO:14), Probe #51; AKR1C1: 5′-catgcctgtcctgggattt (SEQ ID NO:15), 5′-[…] (SEQ ID NO:16), Probe #49; AKR1C2: 5′-ctatgcgcctgcagaggt (SEQ ID NO:17), 5′-[…] (SEQ ID NO:18), Probe #31; AKR1C3: 5′-[…] (SEQ ID NO:19), 5′-[…] (SEQ ID NO:20), Probe #78; CYSLTR2: 5′-[…] (SEQ ID NO:21), 5′-[…] (SEQ ID NO:22), Probe #18; DPEP1: 5′-gacgtcctgaggctggtg (SEQ ID NO:23), 5′-[…] (SEQ ID NO:24), Probe #9 (SEQ ID NO:25), ELOVL2: 5′-[…] (SEQ ID NO:26), 5′-[…] (SEQ ID NO:27), Probe #53; ELOVL4: 5′-catttggcccatggattc (SEQ ID NO:28), 5′-[…] (SEQ ID NO:29), Probe #31; ELOVL5: 5′-cccttccatgcgtccata (SEQ ID NO:30), 5′-[…] (SEQ ID NO:31), Probe #31; EPHX2: 5′-ttctgctggacaccctgaa (SEQ ID NO:32), 5′-[…] (SEQ ID NO:33), Probe #45; GPX4: 5′-ttcccgtgtaaccagttcg (SEQ ID NO:34), 5′-[…] (SEQ ID NO:35), Probe #36; LTA4H: 5′-ctgctctcacggtccagtc (SEQ ID NO:36), 5′-[…] (SEQ ID NO:37), Probe #64; LTBR2: 5′-[…] (SEQ ID NO:38), 5′-[…] (SEQ ID NO:39), Probe #33; LTC4S: 5′-[…] (SEQ ID NO:40), 5′-[…] (SEQ ID NO:41), Probe #18; PTGDS: 5′-[…] (SEQ ID NO:42), 5′-[…] (SEQ ID NO:43), Probe #36; PTGES: 5′-agagatgcctgcccacag (SEQ ID NO:44), 5′-tggccaccacgtacatctt (SEQ ID NO:45), Probe #4; PTGES2: 5′-[…] (SEQ ID NO:46), 5′-[…] (SEQ ID NO:47), Probe #49; PTGES3 (SEQ ID NO:48), 5′-[…] (SEQ ID NO:49), 5′-[…] (SEQ ID NO:50), Probe #48; PTGIS: 5′-[…] (SEQ ID NO:51), 5′-[…] (SEQ ID NO:52), Probe #45; PTGR1: 5′-atgatggggcagcaagtg (SEQ ID NO:53), 5′-cccatcagaaatggagtgc (SEQ ID NO:54), Probe #64; PTGS1: 5′-[…] (SEQ ID NO:55), 5′-gtggtggtccatgttcctg (SEQ ID NO:56), Probe #81; PTGS2: 5′-gatccccagggctcaaac (SEQ ID NO:57), 5′-[…] (SEQ ID NO:58), Probe #61; TBXAS1: 5′-[…] (SEQ ID NO:59), 5′-tgcctcccgtgtgaatct (SEQ ID NO:60), Probe #73; AREG: 5′-[…] (SEQ ID NO:61), 5′-[…] (SEQ ID NO:62), Probe #73; CCL2: 5′-AGTCTCTGCCGCCCTTCT (SEQ ID NO:63), 5′-GTGACTGGGGCATTGATTG (SEQ ID NO:64), Probe #40; CCL27: 5′-[…] (SEQ ID NO:65), 5′-gctgggtggcagtaggaat (SEQ ID NO:66), Probe #18; CXCL1: 5′-[…] (SEQ ID NO:67), 5′-[…] (SEQ ID NO:68), Probe #52; HGF: 5′-[…] (SEQ ID NO:69), 5′-[…] (SEQ ID NO:70), Probe #49; ILIA: 5′-[…] (SEQ ID NO:71), 5′-[…] (SEQ ID NO:72), Probe #6; IL1B: 5′-[…] (SEQ ID NO:73), 5′-[…] (SEQ ID NO:74), Probe #78; IL6: 5′-[…] (SEQ ID NO:75), 5′-gaaggcagcaggcaacac (SEQ ID NO:76), Probe #45; IL8: 5′-[…] (SEQ ID NO:77), 5′-atggttccttccggtggt (SEQ ID NO:78), Probe #72; IL10: 5′-[…] (SEQ ID NO:79), 5′-[…] (SEQ ID NO:80), Probe #67; MMP3: 5′-[…] (SEQ ID NO:81), 5′-[…] (SEQ ID NO:82), Probe #36; PDGFA: 5′-[…] (SEQ ID NO:83), 5′-[…] […]

[3] = system: C57BL6/J and p16-3MR mice injured with bleomycin; assay: Bleomycin-induced pulmonary fibrosis in mice; type: in vivo, mouse; remark: listed apart in the source
[4] = bleomycin-treated animals, day 14, ELISA

Structure (SMILES)	IL-6 secretion [1]	RNA levels of p16INK4a and p21WAF1 in lungs ([2]; 14 days after bleomycin injury)	collagen expression (Col3a1 and Col4a1) ([2]; bleomycin-injured mice, 21 days after injury as printed)	mRNA levels of Alox5, Ltc4s, Ptgs2, Ptgds, and Ptges in lungs ([2]; bleomycin-injured mice, day 14)	histological staining of lungs with picrosirius red ([3]; 21 days after bleomycin)	collagen content (hydroxyproline) ([3]; 21 days after injury)	cysteinyl leukotrienes in bronchioalveolar lavage fluid (BALF) [3, 4]	prostaglandin E2 in bronchioalveolar lavage fluid (BALF) [3, 4]	phosphorylation of cPLA2 ([3]; bleomycin-treated mice, lung, day 14)
CCCCC[C@H](O)/C=C/[C@H]1C=CC(=O)[C@@H]1C/C=C\CCCC(=O)O [PGA2]	elevated								
CC1(C)CCC(c2ccc(Cl)cc2)=C(CN2CCN(c3ccc(C(=O)NS(=O)(=O)c4ccc(N[C@H](CCN5CCOCC5)CSc5ccccc5)c(S(=O)(=O)C(F)(F)F)c4)cc3)CC2)C1 [ABT-263, 4-[4-[[2-(4-chlorophenyl)-5,5-dimethylcyclohexen-1-yl]methyl]piperazin-1--yl]-N-[4-[[(2R)-4-morpholin-4-yl-1-phenylsulfanylbutan-2-yl]amino]-3-(tri-fluoromethylsulfonyl)phenyl]sulfonylbenzamide]		significantly attenuated	reduced	lowered these levels to those of PBS-treated animals	attenuation of the fibrotic response	reduced	reduced	reduced	lowered
